One assay deals with T1, hBGT1 E52Y (Homo sapiens, UniProt P48065, E52Y).
T1 sequence (P48065 1-614 E52Y): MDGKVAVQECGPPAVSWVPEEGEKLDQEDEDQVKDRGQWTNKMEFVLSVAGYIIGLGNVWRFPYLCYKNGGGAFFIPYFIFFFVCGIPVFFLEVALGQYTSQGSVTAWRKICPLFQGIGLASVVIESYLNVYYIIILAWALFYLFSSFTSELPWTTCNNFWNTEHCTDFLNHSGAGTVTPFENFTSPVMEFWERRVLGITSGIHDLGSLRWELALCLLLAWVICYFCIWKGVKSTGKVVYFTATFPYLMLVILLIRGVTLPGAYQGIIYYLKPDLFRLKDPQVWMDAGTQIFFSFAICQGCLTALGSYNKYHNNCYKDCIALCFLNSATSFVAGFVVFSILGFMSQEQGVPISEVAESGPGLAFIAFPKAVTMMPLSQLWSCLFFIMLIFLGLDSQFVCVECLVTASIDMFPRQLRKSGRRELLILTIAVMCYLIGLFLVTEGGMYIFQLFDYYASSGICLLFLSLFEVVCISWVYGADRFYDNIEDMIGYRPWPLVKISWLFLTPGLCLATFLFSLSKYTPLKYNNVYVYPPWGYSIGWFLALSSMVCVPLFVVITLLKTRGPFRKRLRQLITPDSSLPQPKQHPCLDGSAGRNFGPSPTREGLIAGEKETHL
Put plainly: cell-based. Conditions: 30 nM [3H]GABA, tsA201 cells, transient expression.

For the next assay, the target named is T2, hGAT1 (Homo sapiens, UniProt P30531).
T2 construct: expressed in transfected cells
Put plainly: [3H]GABA uptake inhibition at hGAT1 stably expressed in CHO Flp-In cells. Type of assay: cell-based. The settings on record: 30 nM [3H]GABA, 3 min, CHO Flp-In cells stably expressing hGAT1; read-out: IC50 hGAT1. Here is the method: CHO Flp-In and tsA201 cells were cultured at 37 °C in a humidified atmosphere of […] and 5% CO2. As previously described[38],[63], CHO Flp-In cells stably expressing the hGATs were cultured in Ham’s F12 Nutrient Mix supplemented with 10% FBS, 1% P/S and plasmocin (5 µg/mL) under the selection pressure of hygromycin B (200 µg/mL). DMEM with GlutaMAX-I supplemented with 10% FBS and 1% P/S was used as growth medium for the tsA201 cells, which were transfected with DNA constructs using PolyFect according to the manufacturer’s specifications (Qiagen, West Sussex, UK), but with half of the recommended reagent volumes.
Uptake assays were performed in PDL-coated white 96-well polystyrene cell culture microplates (PerkinElmer, Boston, MA, USA) as previously described[38],[63]. […] Assay buffer was HBSS supplemented with 20 mM HEPES, 1 mM CaCl2 and 1 mM MgCl2, pH 7.4. […] After termination, scintillation liquid (MicroScint-20, PerkinElmer) was added and the radioactivity measured in a TopCount NXT Microplate Scintillation Counter (PerkinElmer).
Data analysis and statistical evaluation were performed in GraphPad Prism 7.02 (GraphPad Software, San Diego, CA, USA). Concentration-uptake inhibition curves, generated from the radioligand-based uptake assays, were fitted by non-linear regression, using the equation for sigmoidal concentration–response with variable slope: Y = Bottom + (Top–Bottom)/(1 + 10^((logIC50 − X) × HillSlope)), where Y is the response, X is the logarithm of the concentration, Top and Bottom are the plateaus in same units as Y, logIC50 is the concentration giving a response halfway between Bottom and Top, and the HillSlope is the steepness of the curve. For the substrate concentration–response curves generated from the FMP assay, the same equation was used but with logEC50 instead for logIC50. Unless otherwise stated, data are presented as means ± S.E.M. of at least three independent pooled experiments performed in triplicates.

The target in another assay is T3, hGAT3 wt (Homo sapiens, UniProt P48066).
T3 construct: expressed in transfected cells; host or cells: tsA201 cells, transient (PolyFect), pcDNA5/FRT vector
T3 sequence (P48066 1-632): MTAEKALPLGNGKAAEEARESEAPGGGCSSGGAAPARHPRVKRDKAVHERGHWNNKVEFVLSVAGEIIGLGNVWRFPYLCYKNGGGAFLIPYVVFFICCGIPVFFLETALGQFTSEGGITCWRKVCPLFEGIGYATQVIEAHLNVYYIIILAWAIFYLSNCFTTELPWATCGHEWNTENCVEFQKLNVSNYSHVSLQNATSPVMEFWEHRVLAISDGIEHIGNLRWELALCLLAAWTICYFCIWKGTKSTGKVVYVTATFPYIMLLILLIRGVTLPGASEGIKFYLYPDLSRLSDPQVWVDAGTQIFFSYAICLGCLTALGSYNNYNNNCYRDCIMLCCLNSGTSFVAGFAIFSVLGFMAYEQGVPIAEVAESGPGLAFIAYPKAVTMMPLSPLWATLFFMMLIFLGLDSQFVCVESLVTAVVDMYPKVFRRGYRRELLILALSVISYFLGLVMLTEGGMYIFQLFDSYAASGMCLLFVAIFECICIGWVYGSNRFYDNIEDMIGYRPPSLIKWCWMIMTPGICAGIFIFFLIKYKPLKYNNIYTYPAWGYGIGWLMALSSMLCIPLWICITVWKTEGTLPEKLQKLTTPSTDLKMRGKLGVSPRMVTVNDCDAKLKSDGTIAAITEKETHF
Put plainly: [3H]GABA uptake inhibition at wt hGAT3 transiently expressed in tsA201 cells. Type of assay: cell-based. The settings on record: 30 nM [3H]GABA, transient expression.

Another assay has as its target T4, hGAT3 L314Q (Homo sapiens, UniProt P48066, L314Q).
T4 construct: expressed in transfected cells; host or cells: tsA201 cells, transient (PolyFect), pcDNA5/FRT vector
T4 sequence (P48066 1-632 L314Q): T3 sequence (P48066 1-632) with L314Q
Put plainly: [3H]GABA uptake inhibition at hGAT3 L314Q transiently expressed in tsA201 cells. Type of assay: cell-based. The settings on record: 30 nM [3H]GABA, transient expression.

[1] abbreviates: read-out: pIC50 ± S.E.M. GAT3 wt (converted).
The mark [2] stands for this setting: read-out: pIC50 ± S.E.M. GAT3 L314Q (converted).

Here are results for 6 molecules from article PMC7400577 (Scientific Reports, 2020).

Molecules are shown by their SMILES. Positions count from the first letter of the chain named. Read-outs that look alike come from different tables or passages of the source.

T2 sequence (P30531 whole entry): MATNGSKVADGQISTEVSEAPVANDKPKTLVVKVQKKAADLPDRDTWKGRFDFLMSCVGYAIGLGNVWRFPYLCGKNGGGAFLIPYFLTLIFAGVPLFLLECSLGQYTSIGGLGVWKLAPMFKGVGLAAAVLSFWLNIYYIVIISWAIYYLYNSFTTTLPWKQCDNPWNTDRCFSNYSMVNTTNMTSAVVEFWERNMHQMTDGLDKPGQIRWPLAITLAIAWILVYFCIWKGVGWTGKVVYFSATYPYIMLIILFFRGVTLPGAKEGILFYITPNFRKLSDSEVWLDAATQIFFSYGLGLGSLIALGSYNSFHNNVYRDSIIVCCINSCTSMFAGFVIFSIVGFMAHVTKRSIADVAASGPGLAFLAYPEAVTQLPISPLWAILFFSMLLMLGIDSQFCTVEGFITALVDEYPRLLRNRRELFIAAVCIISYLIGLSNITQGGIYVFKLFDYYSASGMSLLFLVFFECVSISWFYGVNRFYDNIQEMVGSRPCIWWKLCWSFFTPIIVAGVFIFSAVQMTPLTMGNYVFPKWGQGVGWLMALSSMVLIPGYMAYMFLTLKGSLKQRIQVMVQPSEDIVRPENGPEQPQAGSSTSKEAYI

Regarding `C[C@@H]1N=C(N)NC[C@@H]1C(=O)O` (single isomer, unassigned) [l-15a], the IC50 on hBGT1 E52Y (IC50 BGT1 E52Y) was greater than 1000 µM; at hGAT1 it was greater than 1 mM; at hGAT3 wt (read-out: IC50 GAT3 wt), greater than 1000 µM; at hGAT3 L314Q (read-out: IC50 GAT3 L314Q) it was greater than 1000 µM.

Consider `NC1=NCC(C(=O)O)CN1` (centres unmarked) [ATPCA, 2-amino-1,4,5,6-tetrahydropyrimidine-5-carboxylic acid, reference compound], for which the IC50 on hBGT1 E52Y (IC50 BGT1 E52Y) is 5.8 µM; at hGAT1, greater than 1 mM; on hGAT3 wt (read-out: IC50 GAT3 wt), 851 µM; on hGAT3 wt (setting [1]), 589 µM; on hGAT3 L314Q (read-out: IC50 GAT3 L314Q) it was 66 µM; on hGAT3 L314Q (setting [2]), 58.9 µM.

In the case of `NC1=NCC(C(=O)O)CC1` (centres unmarked) [compound 2, 6-amino-2,3,4,5-tetrahydropyridine-3-carboxylic acid, reference compound], the IC50 is 44 µM on hBGT1 E52Y (IC50 BGT1 E52Y); 37.2 µM at hBGT1 E52Y (pIC50 ± S.E.M. BGT1 E52Y); 0.216 mM at hGAT1; greater than 1000 µM at hGAT3 wt (read-out: IC50 GAT3 wt); 695 µM at hGAT3 L314Q (read-out: IC50 GAT3 L314Q).

Regarding `CCN1CC(C(=O)O)CN=C1N.Cl` (centres unmarked) [compound 3], the IC50 was 152 µM against hBGT1 E52Y (IC50 BGT1 E52Y), greater than 1 mM at hGAT1, greater than 1000 µM on hGAT3 wt (read-out: IC50 GAT3 wt) and greater than 1000 µM at hGAT3 L314Q (read-out: IC50 GAT3 L314Q).

Turning to `Cl.NC1=NCC(C(=O)O)CN1Cc1ccccc1` (centres unmarked) [compound 4], the IC50 was 54 µM at hBGT1 E52Y (IC50 BGT1 E52Y); greater than 1 mM at hGAT1; 122 µM on hGAT3 wt (read-out: IC50 GAT3 wt); 115 µM on hGAT3 wt (setting [1]); 500 µM on hGAT3 L314Q (read-out: IC50 GAT3 L314Q); 490 µM on hGAT3 L314Q (setting [2]).

With `NC1=NC=C(C(=O)O)CN1.O=C(O)C(F)(F)F` [compound 11], the IC50 against hBGT1 E52Y (IC50 BGT1 E52Y) is greater than 1000 µM; at hGAT1, greater than 1 mM; at hGAT3 wt (read-out: IC50 GAT3 wt), greater than 1000 µM; on hGAT3 L314Q (read-out: IC50 GAT3 L314Q), greater than 1000 µM.
